The supplement of paper PMC10307832

What was measured:
Assay in all cases: relative viability (nuclei count vs DMSO), 5 days (fraction); higher = more cells survive
NCI-H1944 = system: NCI-H1944
How it was run: (§1)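 Lung cancer cell lines in 1536-well plates were dosed by pin tool the day after seeding, either with one drug alone or with a fixed anchor-drug dose plus five library-drug doses (not always all listed) in √10 steps. After 5 days, cells were fixed and their nuclei stained in one step (final 0.05% Triton X-100, 1% formaldehyde, 1 ug/ml Hoechst), then counted on 4× images. Relative viability is the nuclei count in treated wells divided by that in vehicle wells. Values are medians of duplicate plates.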

NCI-H838 = system: NCI-H838
How it was run: as §1

HCC-78 = system: HCC-78
How it was run: as §1

SK-LU-1 = system: SK-LU-1
How it was run: as §1

NCI-H1734 = system: NCI-H1734
How it was run: as §1

EMC-BAC-2 = system: EMC-BAC-2
How it was run: as §1

UMC-11 = system: UMC-11
How it was run: as §1

SW 1573 = system: SW 1573
How it was run: as §1

NCI-H441 = system: NCI-H441
How it was run: as §1

NCI-H522 = system: NCI-H522
How it was run: as §1

LC-2-ad = system: LC-2-ad
How it was run: as §1

HOP-62 = system: HOP-62
How it was run: as §1

NCI-H2087 = system: NCI-H2087
How it was run: as §1

NCI-H1975 = system: NCI-H1975
How it was run: as §1

NCI-H2347 = system: NCI-H2347
How it was run: as §1

NCI-H2126 = system: NCI-H2126
How it was run: as §1

NCI-H727 = system: NCI-H727
How it was run: as §1

HCC-366 = system: HCC-366
How it was run: as §1

NCI-H2009 = system: NCI-H2009
How it was run: as §1

PC-3 [JPC-3] = system: PC-3 [JPC-3]
How it was run: as §1

ChaGo-K-1 = system: ChaGo-K-1
How it was run: as §1

HCC-44 = system: HCC-44
How it was run: as §1

NCI-H1355 = system: NCI-H1355
How it was run: as §1

`Oc1nc(-c2ccc(C(F)(F)F)cc2)nc2c1CSCC2` [XAV939] + Nc1ncn([C@H]2C[C@H](O)[C@@H](CO)O2)c(=O)n1 [Decitabine] (partner 2 µM) showed a relative viability (NCI-H1944; first compound 0.08 µM) of 0.424, a relative viability (NCI-H1944; first compound 0.253 µM) of 0.439 and a relative viability (NCI-H1944; first compound 0.8 µM) of 0.44. For the same compound, the relative viability (NCI-H1944; first compound 2.53 µM) was 0.403, the relative viability (NCI-H838; first compound 0.08 µM) was 0.488 and the relative viability (NCI-H838; first compound 0.253 µM) was 0.442. The relative viability (NCI-H838; first compound 0.8 µM) was 0.458, the relative viability (NCI-H838; first compound 2.53 µM) was 0.384 and the relative viability (HCC-78; first compound 0.08 µM) was 0.679. For the same compound, the relative viability (HCC-78; first compound 0.253 µM) was 0.655, the relative viability (HCC-78; first compound 0.8 µM) was 0.732 and the relative viability (HCC-78; first compound 2.53 µM) was 0.642. For the same compound, the relative viability (SK-LU-1; first compound 0.08 µM) was 0.665, the relative viability (SK-LU-1; first compound 0.253 µM) was 0.523 and the relative viability (SK-LU-1; first compound 0.8 µM) was 0.652. It also gave a relative viability (SK-LU-1; first compound 2.53 µM) of 0.688, a relative viability (NCI-H1734; first compound 0.08 µM) of 0.489 and a relative viability (NCI-H1734; first compound 0.253 µM) of 0.433. For the same compound, the relative viability (NCI-H1734; first compound 0.8 µM) was 0.494, the relative viability (NCI-H1734; first compound 2.53 µM) was 0.475 and the relative viability (EMC-BAC-2; first compound 0.08 µM) was 1.04. The relative viability (EMC-BAC-2; first compound 0.253 µM) was 0.935, the relative viability (EMC-BAC-2; first compound 0.8 µM) was 0.884 and the relative viability (EMC-BAC-2; first compound 2.53 µM) was 0.721. It also gave a relative viability (UMC-11; first compound 0.08 µM) of 0.633, a relative viability (UMC-11; first compound 0.253 µM) of 0.616 and a relative viability (UMC-11; first compound 0.8 µM) of 0.467. For the same compound, the relative viability (UMC-11; first compound 2.53 µM) was 0.26, the relative viability (SW 1573; first compound 0.08 µM) was 0.559 and the relative viability (SW 1573; first compound 0.253 µM) was 0.436. For the same compound, the relative viability (SW 1573; first compound 0.8 µM) was 0.437, the relative viability (SW 1573; first compound 2.53 µM) was 0.453 and the relative viability (NCI-H441; first compound 0.08 µM) was 0.25. It also gave a relative viability (NCI-H441; first compound 0.253 µM) of 0.253, a relative viability (NCI-H441; first compound 0.8 µM) of 0.232 and a relative viability (NCI-H441; first compound 2.53 µM) of 0.251. The relative viability (NCI-H522; first compound 0.08 µM) was 0.629, the relative viability (NCI-H522; first compound 0.253 µM) was 0.576 and the relative viability (NCI-H522; first compound 0.8 µM) was 0.723. It also gave a relative viability (NCI-H522; first compound 2.53 µM) of 0.607, a relative viability (LC-2-ad; first compound 0.08 µM) of 0.786 and a relative viability (LC-2-ad; first compound 0.253 µM) of 0.719. For the same compound, the relative viability (LC-2-ad; first compound 0.8 µM) was 0.872, the relative viability (LC-2-ad; first compound 2.53 µM) was 0.733 and the relative viability (HOP-62; first compound 0.08 µM) was 0.226. The relative viability (HOP-62; first compound 0.253 µM) was 0.193, the relative viability (HOP-62; first compound 0.8 µM) was 0.223 and the relative viability (HOP-62; first compound 2.53 µM) was 0.157. It also gave a relative viability (NCI-H2087; first compound 0.08 µM) of 0.28, a relative viability (NCI-H2087; first compound 0.253 µM) of 0.297 and a relative viability (NCI-H2087; first compound 0.8 µM) of 0.302. It also gave a relative viability (NCI-H2087; first compound 2.53 µM) of 0.243, a relative viability (NCI-H1975; first compound 0.08 µM) of 0.382 and a relative viability (NCI-H1975; first compound 0.253 µM) of 0.357. The relative viability (NCI-H1975; first compound 0.8 µM) was 0.379, the relative viability (NCI-H1975; first compound 2.53 µM) was 0.354 and the relative viability (NCI-H2347; first compound 0.08 µM) was 0.62. The relative viability (NCI-H2347; first compound 0.253 µM) was 0.586, the relative viability (NCI-H2347; first compound 0.8 µM) was 0.607 and the relative viability (NCI-H2347; first compound 2.53 µM) was 0.517. It also gave a relative viability (NCI-H2126; first compound 0.08 µM) of 0.559, a relative viability (NCI-H2126; first compound 0.253 µM) of 0.537 and a relative viability (NCI-H2126; first compound 0.8 µM) of 0.595. For the same compound, the relative viability (NCI-H2126; first compound 2.53 µM) was 0.481, the relative viability (NCI-H727; first compound 0.08 µM) was 0.805 and the relative viability (NCI-H727; first compound 0.8 µM) was 0.934. For the same compound, the relative viability (NCI-H727; first compound 2.53 µM) was 0.653, the relative viability (HCC-366; first compound 0.08 µM) was 0.329 and the relative viability (HCC-366; first compound 0.253 µM) was 0.299. The relative viability (HCC-366; first compound 0.8 µM) was 0.326, the relative viability (HCC-366; first compound 2.53 µM) was 0.31 and the relative viability (NCI-H2009; first compound 0.08 µM) was 0.515. The relative viability (NCI-H2009; first compound 0.253 µM) was 0.359, the relative viability (NCI-H2009; first compound 0.8 µM) was 0.405 and the relative viability (NCI-H2009; first compound 2.53 µM) was 0.336. For the same compound, the relative viability (PC-3 [JPC-3]; first compound 0.253 µM) was 0.724, the relative viability (PC-3 [JPC-3]; first compound 0.8 µM) was 0.837 and the relative viability (PC-3 [JPC-3]; first compound 2.53 µM) was 0.784. For the same compound, the relative viability (ChaGo-K-1; first compound 0.08 µM) was 0.495, the relative viability (ChaGo-K-1; first compound 0.253 µM) was 0.505 and the relative viability (ChaGo-K-1; first compound 0.8 µM) was 0.507. It also gave a relative viability (ChaGo-K-1; first compound 2.53 µM) of 0.494, a relative viability (HCC-44; first compound 0.08 µM) of 0.969 and a relative viability (HCC-44; first compound 0.253 µM) of 0.861. For the same compound, the relative viability (HCC-44; first compound 0.8 µM) was 0.928, the relative viability (HCC-44; first compound 2.53 µM) was 0.878 and the relative viability (NCI-H1355; first compound 0.08 µM) was 0.357. For the same compound, the relative viability (NCI-H1355; first compound 0.253 µM) was 0.309, the relative viability (NCI-H1355; first compound 0.8 µM) was 0.393 and the relative viability (NCI-H1355; first compound 2.53 µM) was 0.298.
